Assay results reported in PMC6720605, “Bioactivity of Methoxylated and Methylated 1-Hydroxynaphthalene-2-Carboxanilides: Comparative Molecular Surface Analysis” (Molecules, 2019).
≈ marks a conversion by molar mass, not a printed value. Read-outs that look alike come from different tables or passages of the source.

Key:
[1] = test system: Mycobacterium tuberculosis H37Ra ATCC 25177; assay: In vitro antimycobacterial evaluation (MIC), M. tuberculosis; assay type: cell-based
Protocol: (§1) The evaluation of the in vitro antimycobacterial activity of the compounds was performed against Mycobacterium tuberculosis H37Ra ATCC 25177 and M. kansasii DSM 44162 by means of the methodology described recently [e.g., 1,3,4–6,15,43]. Isoniazid (Sigma) was used as the standard.

[2] = test system: Staphylococcus aureus ATCC 29213; assay: In vitro antistaphylococcal susceptibility testing (MIC), reference strain; assay type: cell-based
Protocol: (§2) The synthesized compounds were evaluated for in vitro antibacterial activity against representatives of multidrug-resistant bacteria, clinical isolates of methicillin-resistant Staphylococcus aureus (MRSA) 63718, SA 630 and SA 3202 [16, 17] that were obtained from the National Institute of Public Health (Prague, Czech Republic). S. aureus ATCC 29213 was used as the reference and quality control strain. Ampicillin (Sigma, St. Louis, MO, USA) was used as the standard. The screening was performed as described previously.

[3] = test system: methicillin-resistant S. aureus SA 630; assay: In vitro antibacterial evaluation (MIC), MRSA clinical isolate SA 630; assay type: cell-based, Staphylococcus aureus; conditions: read-out: MIC MRSA SA 630
Protocol: as §2

[4] = test system: M. kansasii DSM 44162; assay: In vitro antimycobacterial evaluation (MIC), M. kansasii; assay type: cell-based, Mycobacterium kansasii
Protocol: as §1

[5] = test system: methicillin-resistant S. aureus SA 3202; assay: In vitro antibacterial evaluation (MIC), MRSA clinical isolate SA 3202; assay type: cell-based, Staphylococcus aureus; conditions: read-out: MIC MRSA SA 3202
Protocol: as §2

[6] = Lipophilicity determination by HPLC (capacity factor k / calculated log k); assay type: physicochemical; conditions: experimental lipophilicity
Protocol: The lipophilicity determination was performed as described by Kapustikova et al..

[7] = test system: methicillin-resistant S. aureus 63718; assay: In vitro antibacterial evaluation (MIC), MRSA clinical isolate 63718; assay type: cell-based, Staphylococcus aureus
Protocol: as §2

[8] = test system: photosynthetic electron transport (PET) in spinach (Spinacia oleracea L.) chloroplasts; assay: Inhibition of photosynthetic electron transport (PET) in spinach chloroplasts; assay type: biochemical
Protocol: The PET-inhibiting investigation using chloroplasts from spinach (Spinacia oleracea L.) was performed as described previously.

[9] = test system: human monocytic leukaemia THP-1 cells; assay type: cell-based; conditions: 30 µM highest concentration
Protocol: Human monocytic leukaemia THP-1 cells were obtained from the European Collection of Cell Cultures (ECACC, Salisbury, UK; Methods of characterization: DNA Fingerprinting (Multilocus probes) and isoenzyme analysis). Cell toxicity was determined using a Cytotoxicity Detection Kit^PLUS Lactate dehydrogenase (LDH) assay kit (Roche Diagnostics, Mannheim, Germany) according to the manufacturer’s instructions, as described previously.

[10] = M. kansasii DSM 44162, read-out: MIC MK
[11] = clinical isolate MRSA 63718, read-out: MIC MRSA 63718
[12] = Mycobacterium kansasii, DSM44162, M. kansasii DSM 44162, read-out: MIC MK

Structure (SMILES)	MIC [1]	MIC [2]	MIC ([3]; clinical isolate MRSA SA 630)	MIC [4, 10]	MIC ([5]; clinical isolate MRSA SA 3202)	log k [6]	MIC [7, 11]	IC50 [8]	MIC ([2]; ATCC29213)	MIC ([3]; Staphylococcus aureus, clinical isolate MRSA SA 630)	MIC [4, 12]	MIC ([5]; Staphylococcus aureus, clinical isolate MRSA SA 3202)	MIC ([7]; Staphylococcus aureus, clinical isolate MRSA 63718, read-out: MIC MRSA 63718)	MIC ([7]; Staphylococcus aureus, one value for the three clinical MRSA strains (63718, SA 630, SA 3202), read-out: MIC against the MRSA strains)	Tox LD50 [9]	MIC ([3]; Staphylococcus aureus, MRSA)	MIC ([4]; Mycobacterium kansasii, DSM44162, read-out: MIC MK)	MIC ([5]; Staphylococcus aureus, MRSA)	MIC ([7]; Staphylococcus aureus, MRSA, read-out: MIC MRSA 63718)	MIC ([7]; Staphylococcus aureus, MRSA, read-out: MIC against the MRSA strains)
Cc1ccc(NC(=O)c2ccc3ccccc3c2O)cc1 [Compound 10]	462 µM (≈ 128 µg/mL)	923 µM (≈ 256 µg/mL)	923 µM (≈ 256 µg/mL)	57.7 µM (≈ 16 µg/mL)	923 µM (≈ 256 µg/mL)	0.8294	923 µM (≈ 256 µg/mL)	28.7 µM	–	–	–	–	–	–	–	–	–	–	–	–
COc1ccc(NC(=O)c2ccc3ccccc3c2O)cc1 [Compound 4]	436 µM (≈ 128 µg/mL)	873 µM (≈ 256 µg/mL)	>873 µM	>873 µM	>873 µM	0.6284	>873 µM	79.5 µM	–	–	–	–	–	–	–	–	–	–	–	–
COc1ccc(C)cc1NC(=O)c1ccc2ccccc2c1O [Compound 15]	13.0 µM (≈ 4 µg/mL)	>832 µM	>832 µM	52.0 µM (≈ 16 µg/mL)	>832 µM	1.0603	>832 µM	–	–	–	–	–	–	–	–	–	–	–	–	–
Cc1ccc(C)c(NC(=O)c2ccc3ccccc3c2O)c1 [Compound 11, N-(2,5-dimethylphenyl)-1-hydroxynaphthalene-2-carboxamide]	110 µM (≈ 32 µg/mL)	–	–	–	–	0.7155	–	52.4 µM	13.7 µM (≈ 3.99 µg/mL)	27.5 µM (≈ 8.01 µg/mL)	220 µM (≈ 64.1 µg/mL)	27.5 µM (≈ 8.01 µg/mL)	27.5 µM (≈ 8.01 µg/mL)	27.5 µM (≈ 8.01 µg/mL)	>30 µM	–	–	–	–	–
Cc1ccccc1NC(=O)c1ccc2ccccc2c1O [Compound 8]	462 µM (≈ 128 µg/mL)	115 µM (≈ 31.9 µg/mL)	231 µM (≈ 64.1 µg/mL)	115 µM (≈ 31.9 µg/mL)	231 µM (≈ 64.1 µg/mL)	0.5650	231 µM (≈ 64.1 µg/mL)	62.8 µM	–	–	–	–	–	–	–	–	–	–	–	–
COc1cc(NC(=O)c2ccc3ccccc3c2O)cc(OC)c1OC [Compound 7]	22.6 µM (≈ 7.99 µg/mL)	724 µM (≈ 256 µg/mL)	724 µM (≈ 256 µg/mL)	90.5 µM (≈ 32 µg/mL)	724 µM (≈ 256 µg/mL)	0.5603	724 µM (≈ 256 µg/mL)	468 µM	–	–	–	–	–	–	–	–	–	–	–	–
COc1ccc(C(F)(F)F)cc1NC(=O)c1ccc2ccccc2c1O [Compound 21]	354 µM (≈ 128 µg/mL)	708 µM (≈ 256 µg/mL)	708 µM (≈ 256 µg/mL)	708 µM (≈ 256 µg/mL)	708 µM (≈ 256 µg/mL)	0.9428	708 µM (≈ 256 µg/mL)	26.4 µM	–	–	–	–	–	–	–	–	–	–	–	–
CC[C@@]1(O)C(=O)OCc2c1cc1n(c2=O)Cc2cc3ccccc3nc2-1 [camptothecin, reference compound]	–	–	–	–	–	–	–	–	–	–	–	–	–	–	0.16 ± 0.07 µM	–	–	–	–	–
COc1cc([N+](=O)[O-])ccc1NC(=O)c1ccc2ccccc2c1O [Compound 18]	378 µM (≈ 128 µg/mL)	756 µM (≈ 256 µg/mL)	756 µM (≈ 256 µg/mL)	756 µM (≈ 256 µg/mL)	756 µM (≈ 256 µg/mL)	0.5434	756 µM (≈ 256 µg/mL)	495 µM	–	–	–	–	–	–	–	–	–	–	–	–
NNC(=O)c1ccncc1 [INH, isoniazid, reference compound]	36.6 µM (≈ 5.02 µg/mL)	–	–	–	–	–	–	–	–	–	233 µM (≈ 32 µg/mL)	–	–	–	–	–	–	–	–	–
COc1ccc([N+](=O)[O-])cc1NC(=O)c1ccc2ccccc2c1O [Compound 19]	378 µM (≈ 128 µg/mL)	756 µM (≈ 256 µg/mL)	756 µM (≈ 256 µg/mL)	756 µM (≈ 256 µg/mL)	756 µM (≈ 256 µg/mL)	0.4827	756 µM (≈ 256 µg/mL)	155 µM	–	–	–	–	–	–	–	–	–	–	–	–
COc1cc(NC(=O)c2ccc3ccccc3c2O)cc(OC)c1 [Compound 6, N-(3,5-dimethoxy-phenyl)-1-hydroxynaphthalene-2-carboxamide]	24.7 µM (≈ 7.99 µg/mL)	12.3 µM (≈ 3.98 µg/mL)	–	–	–	0.7048	–	13.4 µM	12.3 µM (≈ 3.98 µg/mL)	–	–	–	–	–	>30 µM	24.7 µM (≈ 7.99 µg/mL)	24.7 µM (≈ 7.99 µg/mL)	24.7 µM (≈ 7.99 µg/mL)	24.7 µM (≈ 7.99 µg/mL)	24.7 µM (≈ 7.99 µg/mL)
